Patent US10682323B2, “Therapeutic agent for glaucoma” (TOA EIYO LTD., priority 2016, dated 2020)

What was measured:
[1] = as disclosed in Patent Literature 1 (WO 2015/095515 A); cited from earlier work
[2] = Determination of Log D value (flask shaking method); format: physicochemical; conditions: pH 6.8; partition between n-octanol and second solution for the disintegration test (16th revised Japanese Pharmacopoeia), room temperature
Experimental: More specifically, the Log D is more preferably 1.6 or more and 2.3 or less, still more preferably 1.8 or more and 2.2 or less, and particularly preferably 1.8 or more and 2.1 or less. Here, the Log D value in the present invention is a compound partition coefficient between n-octanol and a second solution of a disintegration test of the 16th revised Japanese Pharmacopoeia.
The Log D value was determined using a flask shaking method, where a test compound partition coefficient between n-octanol and the second solution for the disintegration test defined in the 16th revised Japanese Pharmacopoeia was calculated. Specifically, in a microtube containing 2 mg of the test compound, n-octanol (0.25 mL) and the second solution for the disintegration test (0.25 mL) were mixed. The tube was shaken in a multi shaker at room temperature for 60 minutes, and allowed to stand until the two phases were completely separated. In the microtube, 10 μL of an n-octanol phase was diluted with 190 μL of 85% methanol and mixed, thereby obtaining an organic phase test solution. 100 μL of the second solution phase for the disintegration test was diluted with 100 μL of 50% methanol, and mixed, thereby obtaining an aqueous phase test solution. The organic phase test solution and the aqueous phase test solution were filtered, respectively, and the concentration of the test compound in these test solutions were measured, using high performance liquid chromatography. Then, from the measured concentration and dilution rate, the Log D was calculated.
That is, the Log D of the present specification is represented by the following equation: Log D=Log10([concentration of test compound in organic phase test solution]/[concentration of test compound in aqueous phase test solution])+1 [Equation 1]
The second solution for the disintegration test herein refers to, as defined in the 16th revised Japanese Pharmacopoeia, a liquid obtained by adding to 250 mL of a 0.2 mol/L potassium dihydrogenphosphate reagent, 118 mL of a 0.2 mol/L sodium hydroxide reagent, and water for adjusting to 1000 mL volume.

[3] = biological target: T1, human sGC (Homo sapiens, UniProt Q02153); test: Measurement of sGC activating effect in CHO-K1 cells stably expressing human sGC and mouse CNGA2; format: cell-based; conditions: CHO-K1 cells expressing human sGC and mouse CNGA2, Fura2 calcium readout, 10 μmol/L ODQ in assay buffer
T1 construct: expressed in transfected cells; host or cells: CHO-K1 cells (Chinese hamster ovary), stably co-expressing mouse CNGA2 as the calcium read-out channel
T1 sequence (Q02153 1-619): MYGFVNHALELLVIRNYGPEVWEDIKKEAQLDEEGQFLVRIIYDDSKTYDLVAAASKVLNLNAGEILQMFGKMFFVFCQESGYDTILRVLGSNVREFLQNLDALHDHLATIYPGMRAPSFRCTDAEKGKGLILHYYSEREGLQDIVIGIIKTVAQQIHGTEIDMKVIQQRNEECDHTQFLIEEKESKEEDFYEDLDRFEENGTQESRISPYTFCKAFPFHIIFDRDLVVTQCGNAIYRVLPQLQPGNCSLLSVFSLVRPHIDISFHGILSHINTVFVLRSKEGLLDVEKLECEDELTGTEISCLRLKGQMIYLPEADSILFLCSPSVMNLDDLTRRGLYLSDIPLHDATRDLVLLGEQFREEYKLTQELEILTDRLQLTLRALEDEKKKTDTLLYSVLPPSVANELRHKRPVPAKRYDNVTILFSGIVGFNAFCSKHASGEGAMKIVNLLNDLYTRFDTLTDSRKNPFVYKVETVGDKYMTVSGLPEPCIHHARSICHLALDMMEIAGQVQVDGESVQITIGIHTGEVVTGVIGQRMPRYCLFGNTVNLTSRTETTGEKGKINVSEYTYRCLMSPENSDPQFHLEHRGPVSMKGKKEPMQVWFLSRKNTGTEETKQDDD
T1 sequence (Q02108 1-690 partner): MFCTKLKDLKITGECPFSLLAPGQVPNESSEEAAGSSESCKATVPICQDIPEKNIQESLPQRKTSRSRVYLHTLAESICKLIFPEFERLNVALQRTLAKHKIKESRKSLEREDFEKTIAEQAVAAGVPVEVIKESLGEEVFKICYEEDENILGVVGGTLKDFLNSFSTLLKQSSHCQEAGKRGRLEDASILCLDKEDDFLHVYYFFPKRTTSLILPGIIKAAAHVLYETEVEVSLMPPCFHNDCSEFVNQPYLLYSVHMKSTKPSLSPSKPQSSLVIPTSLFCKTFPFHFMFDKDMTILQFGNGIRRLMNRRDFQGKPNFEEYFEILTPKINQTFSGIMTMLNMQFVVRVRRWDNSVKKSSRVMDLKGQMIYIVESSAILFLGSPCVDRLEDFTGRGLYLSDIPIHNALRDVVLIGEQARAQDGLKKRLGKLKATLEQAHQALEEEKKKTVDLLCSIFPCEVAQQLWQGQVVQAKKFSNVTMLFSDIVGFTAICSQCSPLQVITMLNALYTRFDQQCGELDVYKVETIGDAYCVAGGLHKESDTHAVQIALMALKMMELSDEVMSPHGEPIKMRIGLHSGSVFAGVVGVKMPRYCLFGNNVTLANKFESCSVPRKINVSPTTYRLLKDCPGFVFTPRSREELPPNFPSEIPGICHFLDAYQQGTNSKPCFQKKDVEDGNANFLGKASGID
Experimental: Chinese Hamster ovary cells (CHO-K1 cells) modified for stably expressing human sGC α subunit and β subunit, and a mouse cyclic nucleotide gated channel (CNGA2) were used in the test.
The CHO-K1 cells stably expressing human sGC and mouse CNGA2 were cultured at 37° C. in a F-12 medium supplemented with 10% (v/v) fetal bovine serum (FBS), penicillin (100 U/mL), streptomycin (100 μg/mL), G418 (250 μg/mL), and Zeocin (250 μg/mL). The cells were suspended in a culture medium, seeded in a 96 well plate, and cultured at 37° C. for 24 hours. The cells were washed with an assay buffer 1 (140 mmol/L of sodium chloride, 5 mmol/L of potassium chloride, 0.5 mmol/L of magnesium chloride, 0.01 mmol/L of calcium chloride, 10 mmol/L of glucose, 0.4 mmol/L of magnesium sulfate, 10 mmol/L of 4-(2-hydroxyethyl)piperazine-1-yl ethanesulfonic acid, 125 μmol/L of sulfinpyrazone, pH 7.4), and then an indicator solution in which Fura2-AM as a fluorescent Ca2+ indicator is dissolved in assay buffer 1 at a concentration of 5 μmol/L was added thereto, and cultured at 37° C. for 60 minutes. The culture medium was removed, the cells were washed with assay buffer 1, the test compound solution was added thereto, and cultured at room temperature for 10 minutes. The plate was mounted on a fluorescence microplate reader (FlexStation II, available from Molecular Devices) with setting of excitation wavelengths of 340 and 380 nm and a detection wavelength of 510 nm, an intracellular calcium concentration was measured as a fluorescent intensity ratio obtained from each excitation wavelength.
In this test, the solution of the test compound was prepared by dissolving each test compound in DMSO at a concentration of 10 mmol/L, and then diluting the solution with assay buffer 2 (140 mmol/L of sodium chloride, 5 mmol/L of potassium chloride, 0.5 mmol/L of magnesium chloride, 1 mmol/L of calcium chloride, 10 mmol/L of glucose, 0.4 mmol/L of magnesium sulfate, 10 mmol/L of 4-(2-hydroxyethyl)piperazine-1-yl ethanesulfonic acid, 125 μmol/L of sulfinpyrazone, 100 μmol/L of isobutylmethylxanthine, 10 μmol/L of 1H-[1,2,4]-oxadiazole [4,3-a]quinoxaline-1-on (hereinafter, referred to as ODQ), pH 7.4), in order to adjust the concentration of 10 μmol/L for testing. As a control solution, a DMSO diluted solution was used, instead of the test compound solution.
The activity of the test compound was calculated as an increase rate (%) of the sGC activity in the test compound solution relative to the sGC activity in the control solution, by dividing a fluorescent intensity ratio in adding the test compound by a fluorescent intensity ratio of the control solution, and subtracting the sGC activity in the control solution (100%) therefrom. An EC50 value was calculated from the activity of the test compound at concentrations of 0.0001, 0.001, 0.003, 0.01, 0.03, 0.1, 1, and 10 μmol/L, using a 4 parameter losgistic model from Assay Explorer (available from Dssault Systèmes BIOVIA).

Row | Compound | logD [2] | EC50 [3] [nM] | intraocular pressure lowering action [1]
1 | O=C(O)CCCCN(CCc1ccccc1OCc1ccc(CCc2ccccc2)cc1)Cc1ccc(C(=O)O)cc1 [Cinaciguat] |  |  | low intraocular pressure lowering action
2 | O=C(O)CCCCN(CCc1ccccc1OCc1ccc2c(c1)CCCC2)C1CCOc2cc(C(=O)O)ccc21 (stereo not shown) [Compound No. 18, 4-[N-(4-carboxybutyl)-N-[2-[2-(1,2,3,4-tetrahydronaphthalene-6-ylmethoxy)phenyl]ethyl]amino]-chromane-7-carboxylic acid] | 2.14 | 2.9 | 
3 | CC(C)c1ccc(COc2ccccc2CCN(CCCCC(=O)O)[C@H]2CCCc3cc(C(=O)O)ccc32)cc1 [Compound No. 10, (+)-(5S)—[N-(4-carboxybutyl)-N-[2-[2-(4-isopropylbenzyloxy)phenyl]ethyl]amino]-5,6,7,8-tetrahydronaphthalene-2-carboxylic acid] | 1.88 | 9.63 | 
4 | O=C(O)CCCCN(CCc1ccccc1OCc1ccc(CCc2ccccc2)cc1)[C@H]1CCc2cc(C(=O)O)ccc21 [Compound No. 12] | 1.95 | 11.9 | 
5 | CC(C)(C)c1cccc(CO[C@@H](CN(CCCCC(=O)O)Cc2ccc(C(=O)O)cc2)c2cccc(Cl)c2)c1 [Compound No. 2, (−)-4-([N-[2-(3-tert-butylbenzyloxy)-(2R)-2-(3-chlorophenyl)ethyl]-N-(4-carboxybutyl)amino]methyl)benzoic acid] | 2.14 | 1.54 | 
6 | O=C(O)CCCCN(CCc1ccccc1OC[C@H]1CCc2ccccc2C1)C1CCCc2cc(C(=O)O)ccc21 (stereo partly drawn) [Compound No. 17, 5-[N-(4-carboxybutyl)-N-[2-[2-((2S)-1,2,3,4-tetrahydronaphthalene-2-ylmethoxy)phenyl]ethyl]amino]-5,6,7,8-tetrahydronaphthalene-2-carboxylic acid] | 2 | 11 | 

Second part, led by results:

Row | logD [2] | EC50 [3] [nM] | Compound | intraocular pressure lowering action [1]
7 | 1.94 | 1.99 | O=C(O)CCCCN(Cc1ccc(C(=O)O)cc1)C[C@H](OCc1cccc(CCc2ccccc2)c1)c1ccccc1 [Compound No. 11, (−)-4-([N-(4-carboxybutyl)-N-[(2R)-2-[3-(2-phenylethyl)benzyloxy]-2-phenylethyl]amino]methyl)benzoic acid] | 
8 | 2.19 | 26.5 | O=C(O)CCCCN(Cc1ccc(C(=O)O)cc1)CC(OCc1ccc(CCc2ccccc2)cc1)c1ccc(F)cc1 (stereo not shown) [Compound No. 13, 4-([N-(4-carboxybutyl)-N-[2-(4-fluorophenyl)-2-[4-(2-phenylethyl)benzyloxy]ethyl]amino]methyl)benzoic acid] | 
9 | 2.17 | 6.49 | O=C(O)CCCCN(Cc1ccc(C(=O)O)cc1)C[C@H](OCc1ccc(Oc2ccc(Cl)cc2)cc1)c1ccccc1 [Compound No. 5, (−)-4-([N-(4-carboxybutyl)-N-[(2R)-2-[4-(4-chlorophenyloxy)benzyloxy]-2-phenylethyl]amino]methyl)benzoic acid] | 
10 | 1.8 | 1.61 | O=C(O)CCCCN(Cc1ccc(C(=O)O)cc1)C[C@H](OCc1ccc(CCc2ccccc2)s1)c1ccccc1 [Compound No. 4, (−)-4-[(N-(4-carboxybutyl)-N-[(2R)-2-[5-(2-phenylethyl)thiophene-2-ylmethoxy]-2-phenylethyl]amino)methyl]benzoic acid] | 
